# Experimental data reported in patent publication US12060360B2, “Lysyl oxidase inhibitors” (The Institute of Cancer Research: Royal Cancer Hospital, priority 2017, dated 2024).
# What was measured:
# Type in all cases: in vivo
# [1] = tested on: PDAC TRP53R172H (p53 mut) cells (mouse pancreatic carcinoma); assay: PDAC allografts, primary tumour volume T/C; conditions: 200 mg/kg po qd; ratio of average tumour volume treated/vehicle control; p<0.05
# Method: (§1) All procedures involving animals were approved by the Animal Welfare and Ethical Review Body of the Institute of Cancer Research and Cancer Research UK Manchester Institute in accordance with National Home Office regulations under the Animals (Scientific Procedures) Act 1986 and according to the guidelines of the Committee of the National Cancer Research Institute Tumour size was determined by caliper measurements of tumour length, width and depth and volume was calculated as volume=0.5236×length×width×depth (mm).
# PDAC allografts: CD1 nu/nu female mice at 6 weeks of age were inoculated subcutaneously in the right flank with 2×10^6 PDAC TRP53R172H (p53 mut) cells at 100 ul suspension per animal. In some examples, the oral dosing by metal gavage commences one day after cells inoculation, at 0.2 ml/20 g bodyweight per animal once daily for 2-4 weeks, with compound dissolved in 5.25% tween20/saline or 5% DMSO/water. In other examples, groups of 7-8 mice were assigned to treatment following stratified allocation of tumour volumes with a median size of circa 100 mm^3. […] Control animals received a similar dosage of vehicle (5.25% tween20/saline). Tumours and weights are measured twice weekly using calipers. At the end of the study the animals are culled, and samples taken, fixed or snap frozen in liquid nitrogen. Frozen samples kept at −80 degree centigrade until being analysed and the fixed samples stained according to the desired marker.
# (§2) For therapeutic efficacy assessment, the ratio of average tumour volume between compound treated and vehicle control treated (T/C) is calculated. Reduction in tumour volume in the compound treated group compared to vehicle-treated control group results in T/C<1. The efficacy of LOX inhibitors described in this invention, as measured by T/C in a pancreatic cancer model, a colorectal cancer model and a breast cancer model is shown in Table 2 and is significant (p<0.05) for all the data presented.
# [2] = tested on: SW620 human colorectal carcinoma cells (mutant RAS); assay: SW620 xenografts, primary tumour volume T/C; conditions: 200 mg/kg po qd; ratio of average tumour volume treated/vehicle control; p<0.05
# Method: as §1
# SW620 xenografts: NCr mice were inoculated subcutaneously in the right flank with 5×10^6 SW620 cells at 100 ul suspension per animal. Groups of 7-8 mice were assigned to treatment following stratified allocation of tumour volumes with a median size of circa 100 mm^3. […] Tumours and weights are measured twice weekly using calipers. […] Frozen samples are kept at −80 degree centigrade until being analysed and the fixed samples stained according to the desired marker.
# as §2, with “Reduction in tumour volume in the compound treated group compared to vehicle-treated control group results in T/C<1.” left out
# [3] = tested on: MDA-MB-231 human breast adenocarcinoma; assay: MDA-MB-231 xenografts, primary tumour volume T/C; conditions: 200 mg/kg po qd, ratio of average tumour volume treated/vehicle control, p<0.05
# Method: as §1
# MDA-MB-231 xenografts. Ncr nude female mice at 6 weeks old from Charles River were injected into the third upper nipple mammary fat pad with MDA-MB-231 Luc 4×10^6 in 100 ul PB (50:50 Matrigel). When tumours reach a mean of 80 mm^3 around 10 days post cell inoculation the animals are allocated in 4 groups of 8. LOX inhibitor treatment is then administrated by oral gavage dosing, at 0.2 ml/20 g bodyweight once daily for up to 28 consecutive days. Tumours and weights are measured twice weekly using calipers and the animals can be imaged using non invasive method by bioluminescence using IVIS 200 imaging machine, weekly using 150 mg/kg luciferin administrate intraperitoneal or subcutaneous. At the end of the study the animals are culled, and samples taken, fixed or snap frozen in liquid nitrogen. Frozen samples kept at −80 degree centigrade until being analyzed and the fixed samples stained according to desired marker.
# as §2
# [4] = tested on: MMTV-PyMT breast transgenic model lung metastases; assay: MMTV-PyMT transgenic mouse breast cancer model, lung metastases quantification T/C; conditions: 200 mg/kg po qd, treated/vehicle control, p<0.05
# Method: MMTV-PyMT (Guy et al, 1992) (FVB) female mice were randomized by non-statistical methods to LOX inhibitor treatment groups from day 70 post-birth, when animals had no detectable tumour. Mice were treated daily by oral gavage with LOX inhibitor in vehicle, or daily vehicle (5% DMSO/2.5% Tween20 in water) by oral gavage. Tumour size was determined unblinded by caliper measurements of tumour length, width and depth and volume was calculated as 0.5236×length×width×depth (mm). In all experiments, mice were humanely killed and mammary tumours and lungs were collected when the primary tumours reached ethical limits or signs of ill health.
# For lung metastases quantification, all mouse tissue samples were fixed in 10% formalin (Sigma) and embedded in paraffin. Samples were sectioned and hematoxylin and eosin (H&E) stained. Samples were imaged with a Leica CN400 slide scanner. Lung metastases were manually selected using Pen tool in ImageScope. Lung metastases number was counted and area was measured using ImageScope. The investigator was blinded to the experimental groups. The ratio of average metastases surface between compound treated and vehicle control treated (TIC) is calculated. The ratio of average metastases numbers between compound treated and vehicle control treated (T/C) is also calculated. Reduction in metastases area and/or in metastatses number in the compound treated group compared to vehicle-treated control group results in T/C<1. The antimetastatic efficacy of LOX inhibitors described in this invention, as measured by T/C in a model of breast cancer metastasising to lungs is shown in Table 2 and is significant (p<0.05) for all the data presented.
smiles,measurement,setting,value
"CCOc1ccc(N2C[C@H]3CN(CCCC#N)C[C@@H]2C(C)(C)C3)cc1 [Example 42, 4-((1R,5S)-6-(4-ethoxyphenyl)-9,9-dimethyl-3,6-diazabicyclo[3.2.2]nonan-3-yl)butanenitrile]",T/C PDAC R172H (p53 mut) (mouse pancreatic carcinoma) - primary tumour,[1],0.44
same,T/C SW620 human colorectal carcinoma cells (mutant RAS) - primary tumour,[2],0.54
same,response vs control in vivo at 200 mg/kg,[3],41%
same,T/C MMT-PyMT breast transgenic model - metastases b) Area,[4]; lung metastases area,b) 0.013
same,T/C MMT-PyMT breast transgenic model - metastases a) Count,[4]; lung metastases number,a) 0.16
